Key:
HDAC 6 = target: T1, HDAC 6 (Homo sapiens, UniProt Q9UBN7); conditions: descriptive statement; cited from earlier work
T1 sequence (Q9UBN7 1-1215): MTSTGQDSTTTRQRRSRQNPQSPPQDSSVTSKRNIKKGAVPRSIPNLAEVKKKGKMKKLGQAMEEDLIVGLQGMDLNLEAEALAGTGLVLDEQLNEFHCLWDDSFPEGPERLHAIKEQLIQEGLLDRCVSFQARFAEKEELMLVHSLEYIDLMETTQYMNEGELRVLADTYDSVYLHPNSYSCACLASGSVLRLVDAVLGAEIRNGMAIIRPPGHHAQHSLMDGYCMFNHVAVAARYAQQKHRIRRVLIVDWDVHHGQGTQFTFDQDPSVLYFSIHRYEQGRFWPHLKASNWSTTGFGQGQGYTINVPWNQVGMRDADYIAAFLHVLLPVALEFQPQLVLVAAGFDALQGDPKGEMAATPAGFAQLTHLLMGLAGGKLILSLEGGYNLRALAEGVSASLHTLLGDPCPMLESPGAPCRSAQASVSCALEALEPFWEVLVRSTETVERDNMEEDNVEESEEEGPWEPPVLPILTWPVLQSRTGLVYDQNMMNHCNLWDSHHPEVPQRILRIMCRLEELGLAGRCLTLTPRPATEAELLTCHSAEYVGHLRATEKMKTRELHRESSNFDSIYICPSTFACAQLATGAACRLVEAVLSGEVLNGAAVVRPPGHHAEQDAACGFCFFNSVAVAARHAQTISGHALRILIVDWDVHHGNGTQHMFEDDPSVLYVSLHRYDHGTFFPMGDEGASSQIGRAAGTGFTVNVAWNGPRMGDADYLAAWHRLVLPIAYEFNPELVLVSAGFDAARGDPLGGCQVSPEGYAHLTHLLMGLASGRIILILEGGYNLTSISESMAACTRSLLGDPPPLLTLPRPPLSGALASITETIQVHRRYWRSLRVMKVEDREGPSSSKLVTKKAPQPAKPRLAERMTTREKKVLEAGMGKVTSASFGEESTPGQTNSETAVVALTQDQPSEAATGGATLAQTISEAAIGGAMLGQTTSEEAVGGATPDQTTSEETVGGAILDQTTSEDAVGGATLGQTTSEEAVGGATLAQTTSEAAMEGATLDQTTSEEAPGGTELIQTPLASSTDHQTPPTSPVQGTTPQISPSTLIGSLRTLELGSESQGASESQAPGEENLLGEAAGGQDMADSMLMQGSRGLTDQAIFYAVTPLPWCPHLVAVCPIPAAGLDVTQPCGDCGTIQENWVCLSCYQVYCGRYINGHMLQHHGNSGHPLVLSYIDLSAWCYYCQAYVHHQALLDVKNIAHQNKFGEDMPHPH

HDAC7 = target: T2, HDAC7 (Homo sapiens, UniProt Q8WUI4); assay: in vitro HDAC inhibition assay (fluorescence); type: biochemical; conditions: 1 h pre-incubation; 2 μM HDAC Substrate Class 2a; read-out: IC50 (μM) HDAC7
T2 sequence (Q8WUI4 1-952): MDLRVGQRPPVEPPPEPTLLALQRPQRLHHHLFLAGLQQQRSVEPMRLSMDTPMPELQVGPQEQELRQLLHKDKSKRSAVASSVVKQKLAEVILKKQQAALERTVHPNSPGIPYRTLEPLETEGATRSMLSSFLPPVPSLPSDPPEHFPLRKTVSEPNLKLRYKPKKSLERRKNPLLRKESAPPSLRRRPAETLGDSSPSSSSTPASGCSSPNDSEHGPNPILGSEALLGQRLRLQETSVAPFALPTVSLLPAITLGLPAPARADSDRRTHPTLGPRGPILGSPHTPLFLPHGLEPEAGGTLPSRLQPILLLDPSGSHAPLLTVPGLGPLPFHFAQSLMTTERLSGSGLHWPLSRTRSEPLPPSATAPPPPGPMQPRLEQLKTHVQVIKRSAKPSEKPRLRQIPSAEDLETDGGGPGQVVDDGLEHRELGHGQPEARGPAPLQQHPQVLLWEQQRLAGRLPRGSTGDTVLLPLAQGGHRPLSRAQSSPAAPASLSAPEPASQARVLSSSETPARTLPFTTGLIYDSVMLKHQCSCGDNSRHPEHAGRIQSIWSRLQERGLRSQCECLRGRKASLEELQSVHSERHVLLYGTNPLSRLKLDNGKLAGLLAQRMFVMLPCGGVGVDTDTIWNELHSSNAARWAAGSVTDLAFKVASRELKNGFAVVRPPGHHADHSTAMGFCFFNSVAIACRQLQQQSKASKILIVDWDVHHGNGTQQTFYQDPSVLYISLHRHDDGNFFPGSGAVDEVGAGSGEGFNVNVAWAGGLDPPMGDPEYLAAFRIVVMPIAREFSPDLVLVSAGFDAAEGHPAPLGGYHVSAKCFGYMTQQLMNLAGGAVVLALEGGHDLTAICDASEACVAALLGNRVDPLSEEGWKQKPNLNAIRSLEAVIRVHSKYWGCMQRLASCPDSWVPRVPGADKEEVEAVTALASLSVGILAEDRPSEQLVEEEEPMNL
Procedure: Briefly, all of the compounds are dissolved in DMSO. A series of dilutions of the compounds were prepared with 10% DMSO in HDAC assay buffer and 5 μl of the dilution was added to a 50 μl reaction so that the final concentration of DMSO is 1% in all of reactions. The compounds were pre-incubated in duplicate at RT for 1 hour in a mixture containing HDAC assay buffer, 5 μg BSA, HDAC enzyme (see Table 7) and a the particular HDACi. After 1 hour, the enzymatic reactions were initiated by the addition of HDAC substrate (BPS Bioscience) to a final concentration of 10 μM or 2 μM. The enzymatic reaction proceeded for 30 minutes at 37° C.
HDAC activity assays were performed in duplicates at each concentration. The fluorescent intensity data were analyzed using the computer software, Graphpad Prism. In the absence of the compound, the fluorescent intensity (Ft) in each data set was defined as 100% activity. In the absence of HDAC, the fluorescent intensity (Fb) in each data set was defined as 0% activity. The percent activity in the presence of each compound was calculated according to the following equation: % activity=(F−Fb)/(Ft−Fb), where F=the fluorescent intensity in the presence of the compound.
The values of % activity versus a series of compound concentrations were then plotted using non-linear regression analysis of Sigmoidal dose-response curve generated with the equation Y=B+(T−B)/1+10^((Log EC50-X)×Hill Slope), where Y=percent activity, B=minimum percent activity, T=maximum percent activity, X=logarithm of compound and Hill Slope=slope factor or Hill coefficient. The IC50 value was determined by the concentration causing a half-maximal percent activity.

[1] = test system: P3HR1 Burkitt's lymphoma cells; assay: Cell death (7AAD) after Nstat, washout, then ganciclovir
Procedure: P3HR1 Burkitt's lymphoma cells were incubated with DMSO (solvent control) or Nstat for 3 days. After that time cell cultures were washed re-fed with ganciclovir (GCV) for an additional 3 days. All test conditions were run in triplicate. Cell death was measured by 7AAD staining.

In the case of `O=C(NO)c1cnc(N2C[C@@H]3[C@H](C2)[C@H]3NCc2ccc3cc(F)ccc3n2)nc1` [Nanatinostat, 2-((1R,5S,6s)-6-(((6-fluoroquinolin-2-yl)methyl)amino)-3-azabicyclo[3.1.0]hexan-3-yl)-N-hydroxypyrimidine-5-carboxamide], the “Activity against HDAC 6” value (HDAC 6) is listed as “not HDAC 6”, the IC50 (HDAC7) is listed as 1.6 µM and the “Increase of cytotoxic activity when combined with Ganciclovir” value [1] is listed as ~40%. The “Cell cytotoxicity when combined with ganciclovir” value ([1]; EBV infected cell line, seen even after Nstat removal) was “increases cell cytotoxicity”.

Reference: patent publication US10953011B2, “Methods of treating virally associated cancers with histone deacetylase inhibitors” (priority 2019, dated 2021)
